Where “and” joins values, the source holds several entries; their conditions need not be identical. Equal values may be shown once. Marks after values point to notes of the source that are not given here.
Key:
[1] = tested on: human liver mitochondrial fraction; assay: Intrinsic clearance and half-life in human liver mitochondrial fraction; format: in vitro ADME; conditions: 0.5 mg/mL human liver mitochondrial fraction, 1 μM test compounds; for Half-life (min) R3 / Half-life (min) R4 / Half-life (min) Mean: 5 μM controls; for Half-life (min) R3: replicate 3; for Half-life (min) R4: replicate 4; for Half-life (min) R1: 5 μM Serotonin and Benzylamine controls, replicate 1; for Half-life (min) Mean: mean of replicates
Source text: (§1) Use of Liver Mitochondrial Fraction to Model Human Metabolism of Deuterated DMT

[2] = Plasma IAA metabolite levels after oral dosing in rats; conditions: for Mean IAA Cmax: rat plasma IAA (semi quantified) after 25 mg/kg PO of the compound; for Mean IAA tmax: rat plasma IAA after 25 mg/kg PO of the compound; for Estimated IAA Concentration / Estimated IAA Concentration, Mean: rat plasma, PO Dose (25 mg/kg); for Estimated IAA Concentration: individual animal; for Estimated IAA Concentration, Mean: mean of animals; for IAA biosynthesis compared to SPL026: rat, PO dosing
[3] = Plasma pharmacokinetics of test compound after oral dosing in rats; conditions: for mean Cmax / Determined Concentration of test compound in plasma / Determined Concentration of test compound in plasma, Mean: rat plasma; for mean Cmax: 25 mg/kg single oral gavage; for Determined Concentration of test compound in plasma / Determined Concentration of test compound in plasma, Mean: oral dosing; for Determined Concentration of test compound in plasma: individual animal; for Determined Concentration of test compound in plasma, Mean: mean of 3 animals; for systemic exposure compared to SPL026: rat, oral (PO) dosing
[4] = tested on: Human (mixed gender) hepatocytes; assay: In vitro intrinsic clearance of DMT and deuterated blends in human hepatocytes; format: in vitro ADME
Procedure: Use of Human Hepatocytes to Assess the In Vitro Intrinsic Clearance of Deuterated DMT Analogue Blends Relative to DMT
To use human hepatocytes to assess the in vitro intrinsic clearance of deuterated DMT analogue blends relative to DMT.
Test compounds were mixed with the hepatocyte suspension within a 96-well plate and incubated for up to 60 minutes at 37° C. The suspension was continuously agitated. At 7 time points, small aliquots were withdrawn, and the test compound/blend concentration therein was measured by LC-MS/MS.
Intrinsic clearance and half-life values were calculated for DMT and the 6 deuterated mixtures described above.

[5] = Intrinsic clearance and half-life in human liver mitochondrial fraction; format: in vitro ADME; conditions: 0.5 mg/mL human liver mitochondrial fraction; 1 μM test compounds, 5 μM controls; mean of replicates
Source text: as §1

[6] = 10 min, fumarate salt, 25 mg/kg
[7] = 15 min, fumarate salt, 25 mg/kg
[8] = 30 min, fumarate salt, 25 mg/kg
[9] = 45 min, fumarate salt, 25 mg/kg
[10] = 60 min, fumarate salt, 25 mg/kg
[11] = 120 min, fumarate salt, 25 mg/kg
[12] = 180 min, fumarate salt, 25 mg/kg

With `O=C(O)/C=C/C(=O)O.[2H]C([2H])([2H])N(C([2H])([2H])[2H])C([2H])([2H])Cc1c[nH]c2ccccc12` [SPL028viii, (96.7%) α,α,-dideutero-N,N-bis-trideutero-dimethyltryptamine fumarate salt] the “Half-life (min) R3” value [1] was 92.9 min, the “Half-life (min) R4” value [1] was 131.5† min and the “Mean IAA Cmax” value [2] was 0.827 ng/mL. For the same molecule, the “Mean IAA tmax” value [2] was 60 min, the “Estimated IAA Concentration” value ([2]; 1 min) was “BLQ” and the “Estimated IAA Concentration, Mean” value ([2]; 1 min) was “BLQ”. The “Estimated IAA Concentration” value ([2]; 5 min, fumarate salt, 25 mg/kg) was “BLQ (2×) and 0.223 ng/mL”, the “Estimated IAA Concentration, Mean” value ([2]; 5 min) was under 0.281 ng/mL and the “Estimated IAA Concentration” value [2, 6] was “BLQ (2×) and 0.430 ng/mL”. For the same molecule, the “Estimated IAA Concentration, Mean” value ([2]; 10 min) was under 0.350 ng/mL, the “Estimated IAA Concentration” value [2, 7] was “BLQ (2×) and 0.846 ng/mL” and the “Estimated IAA Concentration, Mean” value ([2]; 15 min) was under 0.489 ng/mL. For the same molecule, the “Estimated IAA Concentration” value [2, 8] was “BLQ (2×) and 1.04 ng/mL”, the “Estimated IAA Concentration, Mean” value ([2]; 30 min) was under 0.544 ng/mL and the “Estimated IAA Concentration” value [2, 9] was 0.347 ng/mL and 0.821 ng/mL and 1.0 ng/mL. For the same molecule, the “Estimated IAA Concentration, Mean” value ([2]; 45 min) was 0.733 ng/mL, the “Estimated IAA Concentration” value [2, 10] was “BLQ and 0.772 ng/mL and 0.883 ng/mL” and the “Estimated IAA Concentration, Mean” value ([2]; 60 min) was 0.827 ng/mL. For the same molecule, the “Estimated IAA Concentration” value [2, 11] was “BLQ and 0.516 ng/mL and 0.747 ng/mL”, the “Estimated IAA Concentration, Mean” value ([2]; 120 min) was 0.631 ng/mL and the “Estimated IAA Concentration” value [2, 12] was “BLQ and 0.747 ng/mL and 0.673 ng/mL”. The “Estimated IAA Concentration, Mean” value ([2]; 180 min) was 0.710 ng/mL, the “Estimated IAA Concentration” value ([2]; Predose) was “BLQ” and the “Estimated IAA Concentration, Mean” value ([2]; Predose) was “BLQ”. For the same molecule, the “IAA biosynthesis compared to SPL026” value [2] was “significant decrease”, the “mean Cmax” value [3] was 40.77 ng/mL and the “Determined Concentration of test compound in plasma” value ([3]; 1 min, fumarate salt) was 19.8 ng/mL and BLQ (Below the lower limit of quantification 0.310 ng/mL) (2×). For the same molecule, the “Determined Concentration of test compound in plasma, Mean” value (from here on “Determined Concentration … Mean”) ([3]; 1 min) was under 6.8 ng/mL, the “Determined Concentration of test compound in plasma” value ([3]; 5 min, fumarate salt) was 14.9 ng/mL and 3.11 ng/mL and 0.506 ng/mL and the “Determined Concentration … Mean” value ([3]; 5 min) was 6.2 ng/mL. The “Determined Concentration of test compound in plasma” value ([3]; 10 min, fumarate salt) was 18.0 ng/mL and 13.7 ng/mL and 11.8 ng/mL, the “Determined Concentration … Mean” value ([3]; 10 min) was 14.5 ng/mL and the “Determined Concentration of test compound in plasma” value ([3]; 15 min, fumarate salt) was 20.5 ng/mL and 20.3 ng/mL and 36.2 ng/mL. For the same molecule, the “Determined Concentration … Mean” value ([3]; 15 min) was 25.7 ng/mL, the “Determined Concentration of test compound in plasma” value ([3]; 30 min, fumarate salt) was 9.08 ng/mL and 23.0 ng/mL and 35.7 ng/mL and the “Determined Concentration … Mean” value ([3]; 30 min) was 22.6 ng/mL. For the same molecule, the “Determined Concentration of test compound in plasma” value ([3]; 45 min, fumarate salt) was 5.90 ng/mL and 21.7 ng/mL and 40.0 ng/mL, the “Determined Concentration … Mean” value ([3]; 45 min) was 22.5 ng/mL and the “Determined Concentration of test compound in plasma” value ([3]; 60 min, fumarate salt) was 4.43 ng/mL and 30.5 ng/mL and 62.0 ng/mL. For the same molecule, the “Determined Concentration … Mean” value ([3]; 60 min) was 32.3 ng/mL, the “Determined Concentration of test compound in plasma” value ([3]; 120 min, fumarate salt) was 13.5 ng/mL and 31.6 ng/mL and 63.8 ng/mL and the “Determined Concentration … Mean” value ([3]; 120 min) was 36.3 ng/mL. The “Determined Concentration of test compound in plasma” value ([3]; Predose) was “BLQ (Below the lower limit of quantification 0.310 ng/mL)”, the “Determined Concentration … Mean” value ([3]; Predose) was “BLQ (Below the lower limit of quantification 0.310 ng/mL)” and the “systemic exposure compared to SPL026” value [3] was “increased systemic exposure”.
In the case of `O=C(O)/C=C/C(=O)O.[2H]C([2H])(Cc1c[nH]c2ccccc12)N(C)C` [SPL028i, (96.6%) α,α,-dideutero-N,N-dimethyltryptamine fumarate salt], the “half-life compared to undeuterated-DMT” value [4] is reported as “nearly doubling”, the “intrinsic clearance rate compared to undeuterated-DMT” value [4] is reported as “almost halved” and the “Half-life (min) R1” value [1] is reported as 86.1 min. For the same molecule, the “Half-life (min) Mean” value [1] was 85.0 min, the “Half-life (min) R3” value [1] was 82.6 min and the “Half-life (min) R4” value [1] was 72.1 min. For the same molecule, the “Mean IAA Cmax” value ([2]; fumarate salt) was 2.933 ng/mL and 2.993 ng/mL, the “Mean IAA tmax” value [2] was 45 min and the “Estimated IAA Concentration” value ([2]; 1 min) was “BLQ”. For the same molecule, the “Estimated IAA Concentration, Mean” value ([2]; 1 min) was “BLQ”, the “Estimated IAA Concentration” value ([2]; 5 min, fumarate salt, 25 mg/kg) was 0.523 ng/mL and 0.874 ng/mL and 0.503 ng/mL and the “Estimated IAA Concentration, Mean” value ([2]; 5 min) was 0.633 ng/mL. For the same molecule, the “Estimated IAA Concentration” value [2, 6] was 1.24 ng/mL and 1.84 ng/mL and 1.34 ng/mL, the “Estimated IAA Concentration, Mean” value ([2]; 10 min) was 1.473 ng/mL and the “Estimated IAA Concentration” value [2, 7] was 2.41 ng/mL and 0.749 ng/mL and 1.97 ng/mL. For the same molecule, the “Estimated IAA Concentration, Mean” value ([2]; 15 min) was 1.709 ng/mL, the “Estimated IAA Concentration” value [2, 8] was 3.53 ng/mL and 2.10 ng/mL and 2.18 ng/mL and the “Estimated IAA Concentration, Mean” value ([2]; 30 min) was 2.606 ng/mL. For the same molecule, the “Estimated IAA Concentration” value [2, 9] was 4.67 ng/mL and 1.95 ng/mL and 2.35 ng/mL, the “Estimated IAA Concentration, Mean” value ([2]; 45 min) was 2.993 ng/mL and the “Estimated IAA Concentration” value [2, 10] was 2.78 ng/mL and 1.59 ng/mL and 1.50 ng/mL. The “Estimated IAA Concentration, Mean” value ([2]; 60 min) was 1.955 ng/mL, the “Estimated IAA Concentration” value [2, 11] was 2.94 ng/mL and 1.42 ng/mL and 1.81 ng/mL and the “Estimated IAA Concentration, Mean” value ([2]; 120 min) was 2.055 ng/mL. For the same molecule, the “Estimated IAA Concentration” value [2, 12] was 2.09 ng/mL and 0.898 ng/mL and 1.45 ng/mL, the “Estimated IAA Concentration, Mean” value ([2]; 180 min) was 1.480 ng/mL and the “Estimated IAA Concentration” value ([2]; Predose) was “BLQ”. The “Estimated IAA Concentration, Mean” value ([2]; Predose) was “BLQ”, the “IAA biosynthesis compared to SPL026” value [2] was “significant decrease” and the “mean Cmax” value [3] was 54.3 ng/mL. The “Determined Concentration of test compound in plasma” value ([3]; 1 min) was “BLQ (Below the lower limit of quantification 0.310 ng/mL)”, the “Determined Concentration … Mean” value ([3]; 1 min) was “BLQ (Below the lower limit of quantification 0.310 ng/mL)” and the “Determined Concentration of test compound in plasma” value ([3]; 5 min, fumarate salt) was 0.865 ng/mL and 5.85 ng/mL and 0.688 ng/mL. For the same molecule, the “Determined Concentration … Mean” value ([3]; 5 min) was 2.5 ng/mL, the “Determined Concentration of test compound in plasma” value ([3]; 10 min, fumarate salt) was 2.42 ng/mL and 49.2 ng/mL and 6.72 ng/mL and the “Determined Concentration … Mean” value ([3]; 10 min) was 19.4 ng/mL. For the same molecule, the “Determined Concentration of test compound in plasma” value ([3]; 15 min, fumarate salt) was 7.46 ng/mL and 34.3 ng/mL and 19.0 ng/mL, the “Determined Concentration … Mean” value ([3]; 15 min) was 20.3 ng/mL and the “Determined Concentration of test compound in plasma” value ([3]; 30 min, fumarate salt) was 22.6 ng/mL (2×) and 46.4 ng/mL. The “Determined Concentration … Mean” value ([3]; 30 min) was 30.5 ng/mL, the “Determined Concentration of test compound in plasma” value ([3]; 45 min, fumarate salt) was 22.6 ng/mL and 33.1 ng/mL and 43.7 ng/mL and the “Determined Concentration … Mean” value ([3]; 45 min) was 33.1 ng/mL. For the same molecule, the “Determined Concentration of test compound in plasma” value ([3]; 60 min, fumarate salt) was 30.5 ng/mL and 32.1 ng/mL and 53.1 ng/mL, the “Determined Concentration … Mean” value ([3]; 60 min) was 38.6 ng/mL and the “Determined Concentration of test compound in plasma” value ([3]; 120 min, fumarate salt) was 38.0 ng/mL and 18.7 ng/mL and 49.3 ng/mL. For the same molecule, the “Determined Concentration … Mean” value ([3]; 120 min) was 35.3 ng/mL, the “Determined Concentration of test compound in plasma” value ([3]; Predose) was “BLQ (Below the lower limit of quantification 0.310 ng/mL)” and the “Determined Concentration … Mean” value ([3]; Predose) was “BLQ (Below the lower limit of quantification 0.310 ng/mL)”. For the same molecule, the “systemic exposure compared to SPL026” value [3] was “increased systemic exposure”.
For `NCCc1c[nH]c2ccc(O)cc12` [Serotonin, reference compound], the half-life at 5 μM [5] was 9 min, the “Half-life (min) R1” value [1] was 9.3 min and the “Half-life (min) R3” value [1] was 9.1 min. The “Half-life (min) R4” value [1] was 8.5 min.
With `[2H]C([2H])([2H])N(CCc1c[nH]c2ccccc12)C([2H])([2H])[2H]` [SPL028vii] the “Half-life (min) Mean” value [1] was 10.2 min, the “Half-life (min) R3” value [1] was 9.4 min and the “Half-life (min) R4” value [1] was 10.9 min.
In the case of `NCc1ccccc1` [Benzylamine, reference compound], the half-life at 5 μM [5] is reported as 22.8 min, the “Half-life (min) R1” value [1] is reported as 24.3 min and the “Half-life (min) R3” value [1] is reported as 21.2 min. For the same molecule, the “Half-life (min) R4” value [1] was 23.5 min.
